Earlier results on one compound are cited in patent publication US11602517B2, “Pharmaceutical composition, comprising polmacoxib and pregabalin, for treatment of pain” (CRYSTALGENOMICS, INC., priority 2018, dated 2023).

For data set [1] the following is noted: white or light yellow crystalline powder.

`CC(C)C[C@H](CN)CC(=O)O` [Pregabalin, (S)-(+)-3-(aminomethyl)-5-methyl-hexanoic acid]: the average absorption time (absorbed from the upper part of the small intestine) is 6 h. Also, for the setting “absorption in the body”, the “time to reach maximum blood concentration” value is not above 1.3 h. Moreover, the bioavailability result (in vivo) is “about 90%”. Also, the solubility in water result in data set [1] is given as “soluble in water”.
